This note sets out measurements from US20120022121A1, “INDOLES, DERIVATIVES AND ANALOGS THEREOF AND USES THEREFOR” (priority 2007, published 2012).

The subject of one data set is solid tumor cell lines. The experiment in a line: Growth inhibition, range over the cell lines of Table 2. Type of data set: cell-based. To be noted: Homo sapiens, read-out: IC50 values, range over the cell lines tested. The protocol: Cell viability (LNCaP, PC-3 prostate, DU145, PPC-1, and TSU-Pr1 prostate cancer cell lines, HT-29 colon cancer cell line, and MCF-7 breast cancer cell line) was quantitated using the sulforhodamine B (SRB) assay after 96 h coincubation with different concentrations of compound in 96-well plates. Cell viability of leukemia cells (K562 and doxorubicin-resistant K562/Dox) was quantitated by MTT assay after 96 h coincubation with different concentrations of compound in 96-well plates. Drug-induced apoptosis was determined by anti-histone ELISA assay and DNA laddering. Cell cycle progression was assessed by propidium iodide staining and fluorescence-activated cell sorting (FACS) analysis. In vitro tubulin polymerization assay was determined by CytoDYNAMIX ScreenTM3 (CDS-03) kits according to the manufacturer's instructions. Anti-apoptosis protein (Bcl-2 and Bcl-xl) and pro-apoptosis protein (Bax) were examined in LNCaP and PC-3 after 24 h incubation with different concentrations of compound 13 by Western blot assay. In vivo PC-3 xenograft studies were conducted by i.v. dosing of 50 mg/kg, 100 mg/kg and 150 mg/kg for 2 weeks.
Cells were plated in 96-well plates at a density of 800-5,000 cells/well, depending on the cell line, in their required growth media containing 10% fetal bovine serum. […]

For another data set, the system named is K562. Kind of data set: Cell viability MTT assay, 96 h. The data set is classed as cell-based. To be noted: Homo sapiens. Here is the method: (§1) Cells were seeded in 96-well plates and incubated with different concentrations of compound 13, 68 or other anticancer drugs for 96 h. Cell viability was quantitated by MTT assay. […] Table 4 is a comparison of the IC50 of compounds 13, 68 and other anticancer drugs in the K562 and doxorubicin-resistant K562/DOX cell lines.
A general note: Formazan colour is commonly taken as a measure of viable cells.

In the next data set the test system is K562/Dox. Kind of data set: Cell viability MTT assay, 96 h. The data set is classed as cell-based. As to conditions: Homo sapiens, doxorubicin-resistant. The protocol:
as §1

A short description of a further data set: Rotarod performance. The data set is classed as in vivo, ICR mice. Here is the method:
The training and rotarod test was conducted as described previously. Briefly, during the training phase for 2 consecutive days (3 trials/day), mice (10 mice/group) were trained to run in a rotarod apparatus without falling at a constant speed (12 rpm) for a maximum of 2 min. For the rotarod performance test, duration of each trial was less than 5 min. […] Tests were performed for 2 weeks (2 days/week). The animals were tested in three trials per day with an intertrial interval of 30 min. Animal performance was recorded as the average elapsed time for the mice to fall off.

A further data set relates to HT-29. The experiment in a line: Growth inhibition assay (SRB, 96 h). The data set is classed as cell-based. As to conditions: Homo sapiens, HT-29, 96 h. From the text: (§2) MTT (3-(4,5-dimethylthiazol-2-yl)-2,5-diphenyltetrazolium bromide) assay was also used for the leukemia cell lines. […] Cells were stained with SRB solution or MTT solution.
In the next data set the test system is MCF-7. Kind of data set: Growth inhibition assay (SRB, 96 h). To be noted: Homo sapiens, MCF7; MCF-7, 96 h. Type of data set: cell-based.
Description: as §2

A further data set concerns TSU-Pr1. The experiment in a line: Growth inhibition assay (SRB, 96 h). Type of data set: cell-based. As to conditions: Homo sapiens, TSU-Pr1, 96 h.
Description: as §2

The test system of the next data set is MES-SA xenografts. Kind of data set: In vivo antitumor efficacy, MES-SA xenograft. To be noted: q2d, i.p. More on the design: species or system mice. The protocol:
The control group was treated with vehicle (10% DMSO in PEG300).

The next data set has as its system MES-SA/DX5. Kind of data set: Growth inhibition assay (96 h). Type of data set: cell-based, human. As to conditions: for resistance factor (ratio of IC50 resistant subline to parental cell line): MES-SA/DX5 vs MES-SA (P-gp).
Description: as §2

The next data set has as its system HEK293-pcDNA3.1. The experiment in a line: Growth inhibition assay (96 h). The data set is classed as cell-based, human. As to conditions: Homo sapiens, HEK293-pcDNA3.1 (control for MRP).
Description: as §2

Another data set concerns Bcl-2. Kind of data set: Western blot of Bcl-2 phosphorylation. As to conditions: PC-3 cells, 24 h, immunoblot of pBcl-2. The data set is classed as cell-based, human. Here is the method:
Treated cells were lysed in cold lysis buffer (20 mM Tris-HCl, pH 7.5, 150 mM NaCl, 1 mM Na2 EDTA, 1% Triton x-100, and freshly added Na3VO4 (2 mM), NaF (20 mM) and complete protease inhibitor cocktail). For each sample, an aliquot (20 to 40 μg) of total protein was loaded and run on a SDS-Page gel. Protein was transferred to nitrocellulose membranes (Bio-Rad Laboratories, Hercules, Calif.), blocked with 5% non-fat milk, incubated with primary antibody overnight at 4° C., and then incubated with secondary antibody at rt for 1 h. ECL™ (GE Healthcare Bio-Sciences Corp., Piscataway, N.J.) was used for detection. The band intensity was measured by densitometry using TotalLab TL100 Software v2006 (Nonlinear Dynamics Ltd., Newcastle upon Tyne, UK).

For a further data set, the system named is PC-3. Kind of data set: Growth inhibition assay (SRB, 96 h). Type of data set: cell-based, human. As to conditions: PC-3, 96 h.
Description: as §2

The subject of data set [1] is human cancer cell lines from prostate, colon, breast, and bladder. Kind of data set: Cell proliferation by SRB assay, panel of cell lines. Type of data set: cell-based. To be noted: read-out: IC50 values, range over cell lines. The protocol:
as §2
Cell proliferation was measured by SRB assay.

In another data set the test system is PC-12 cells. The experiment in a line: PC-12 cell growth inhibition (SRB). Type of data set: cell-based.
Description: as §2

For data set [2], the system named is MRP1 (over-expressed in the cells). The experiment in a line: Growth inhibition assay (96 h). Type of data set: cell-based, human. As to conditions: human, HEK293 cells over-expressing MRP1 (HEK293-MRP1); HEK293-MRP1, MRP1 over-expressed, 96 h.
Data set [3] relates to MRP2 (over-expressed in the cells). Kind of data set: Growth inhibition assay (96 h). Type of data set: cell-based, human. To be noted: human, HEK293 cells over-expressing MRP2 (HEK293-MRP2); HEK293-MRP2, MRP2 over-expressed, 96 h.
A further data set relates to HEK293-MRP2. The experiment in a line: Growth inhibition assay (96 h). The data set is classed as cell-based, human. To be noted: HEK293-MRP2 vs HEK293-pcDNA3.1.

“Also recorded” adds a separate entry of the source.

For `O=C(c1cccc(-c2cc3ccccc3[nH]2)c1)c1cc2ccccc2[nH]1` [Compound 13, (1H-indol-2-yl)-[3-(1H-indol-2-yl)phenyl]methanone], the IC50 (in general, the concentration needed to halve the response being measured) in the data set on solid tumor cell lines is 34 to 138 nM; with K562, 63.6 ± 2.4 nM; in the data set on K562/Dox, 78.2 ± 2.9 nM.

Regarding `CC[C@]1(O)C[C@@H]2CN(CCc3c([nH]c4ccccc34)[C@@](C(=O)OC)(c3cc4c(cc3OC)N(C)[C@H]3[C@@](O)(C(=O)OC)[C@H](OC(C)=O)[C@]5(CC)C=CCN6CC[C@]43[C@@H]65)C2)C1` [Vinblastine], the rotarod performance entry in the data set “Rotarod performance” (0.5 mg/kg i.p. q2d, day 4 to day 14) is “impaired performance”. The “mean time on the rotating rod” value in the data set “Rotarod performance” (0.5 mg/kg i.p. q2d, end of 2 weeks (vehicle 151 s)) is listed as 121 s. In addition, the IC50 in the data set with HT-29 was determined as 2.4 ± 0.2 nM; in the data set with MCF-7, 1.4 ± 0.4 nM; in the data set with TSU-Pr1, 1.6 ± 0.1 nM; in the data set with K562, 0.3 ± 0.1 nM; with K562/Dox, 140 ± 10.1 nM; in the data set with HEK293-pcDNA3.1, 5 ± 1 nM. The IC50 in the data set with PC-3 (Homo sapiens) is 1 nM; in data set [1] it was 1.1 to 6.3 nM. Further, the “TGI (tumor growth inhibition)” value in the data set on MES-SA xenografts (0.5 mg/kg) is listed as 48%. The figures for the “resistance factor (ratio of IC50 resistant subline to parental cell line)” value with MES-SA/DX5, in the data set on HEK293-MRP2 and in the data set on HEK293-MRP2 (listed as vinblastine) were “(20)”, “(3.7)” and 3.7, respectively. In the data set on Bcl-2, the “concentration that induced phosphorylation (Ser70) of Bcl-2” value was 5 nM. The “IC70 value in PC-12 cell growth inhibition” value in the data set on PC-12 cells turned out to be 5 nM. In addition, the concentration for half-maximal inhibition (IC50) at 96 h in data set [2] was 24.3 ± 2 nM; in data set [3], 18.1 ± 4 nM.

On to `COc1cc(C(=O)c2cccc(-c3cc4ccccc4[nH]3)c2)cc(OC)c1OC` [Compound 68, [3-(1H-Indol-2-yl)-phenyl]-(3,4,5-trimethoxy-phenyl)-methanone], for which the rotarod performance result in “Rotarod performance” (10 mg/kg i.p. q2d, 2 weeks, vs vehicle control) was “did not show impaired rotarod performance; also recorded: no loss of function”. For the same compound, the IC50 with HT-29 was 15.1 ± 1.3 nM; with MCF-7, 39.2 ± 2.9 nM; with TSU-Pr1 it was 17.6 ± 2.1 nM; in the data set with solid tumor cell lines, 18 to 31 nM; in the data set on K562, 23.6 ± 2.4 nM; with K562/Dox it was 18 ± 4.4 nM. The IC50 in the data set on MES-SA/DX5 (Homo sapiens, MES-SA/DX5, P-gp over-expressed, 96 h) is 32.3 ± 8.2 nM; with HEK293-pcDNA3.1, 23.8 ± 1.7 nM; in the data set on PC-3 (Homo sapiens) it was 28 nM; in the data set with PC-3, 28.2 ± 2 nM; in data set [1], 15.1 to 39.2 nM. Moreover, the “TGI (tumor growth inhibition)” value stood at 47% in the data set on MES-SA xenografts (5 mg/kg) and 74% in the data set on MES-SA xenografts (10 mg/kg). In addition, the “resistance factor (ratio of IC50 resistant subline to parental cell line)” value was “(1.0)” in the data set with MES-SA/DX5 and “(1.3)” in the data set with HEK293-MRP2. Moreover, the “concentration that induced phosphorylation (Ser70) of Bcl-2” value with Bcl-2 was 50 nM. The “IC70 value in PC-12 cell growth inhibition” value in the data set with PC-12 cells is listed as 50 nM. The IC50 at 96 h amounted to 30.4 ± 6.4 nM in data set [2] and 31.5 ± 8 nM in data set [3].
